Results as given in patent US5221675A, “Aza-spirocyclic compounds that enhance cholinergic neurotransmission” (Abbott Laboratories, priority 1991, dated 1993).

How the values were obtained:
rat brain receptor sites = conditions: cited from earlier work
[1] = rat; cited from earlier work
M1 muscarinic receptor = molecular target: T1, M1 muscarinic receptor (Rattus norvegicus, UniProt P08482); experiment: Competition with [3H]pirenzepine at cortical M1 muscarinic receptors; format: binding; conditions: Table 1; [3H]pirenzepine, rat fronto-parietal cortex, 25° C., pH 7.4; read-out: Ki @ M1 RECEPTOR
T1 construct: from tissue; host or cells: adult rat fronto-parietal cortex membranes (homogenate)
T1 sequence (P08482 1-460): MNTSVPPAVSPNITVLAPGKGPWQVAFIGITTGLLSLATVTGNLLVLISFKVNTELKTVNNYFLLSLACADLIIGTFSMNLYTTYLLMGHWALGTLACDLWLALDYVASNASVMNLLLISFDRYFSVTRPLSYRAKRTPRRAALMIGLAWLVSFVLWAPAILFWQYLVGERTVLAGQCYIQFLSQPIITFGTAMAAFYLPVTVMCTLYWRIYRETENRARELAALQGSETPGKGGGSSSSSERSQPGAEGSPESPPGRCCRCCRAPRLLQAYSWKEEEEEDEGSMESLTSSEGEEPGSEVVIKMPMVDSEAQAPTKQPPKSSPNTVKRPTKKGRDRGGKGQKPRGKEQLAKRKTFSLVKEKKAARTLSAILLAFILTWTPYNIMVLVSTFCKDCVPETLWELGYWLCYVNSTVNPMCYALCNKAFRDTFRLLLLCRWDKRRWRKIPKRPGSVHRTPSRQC

M2 muscarinic receptor = M2 muscarinic receptor (Rattus norvegicus, UniProt P10980); format: binding; conditions: read-out: Ki @ M2 RECEPTOR; Table 1; [3H]QNB, rat pons-medulla, 25° C., pH 7.4
M2 muscarinic receptor, sequence (P10980 whole entry): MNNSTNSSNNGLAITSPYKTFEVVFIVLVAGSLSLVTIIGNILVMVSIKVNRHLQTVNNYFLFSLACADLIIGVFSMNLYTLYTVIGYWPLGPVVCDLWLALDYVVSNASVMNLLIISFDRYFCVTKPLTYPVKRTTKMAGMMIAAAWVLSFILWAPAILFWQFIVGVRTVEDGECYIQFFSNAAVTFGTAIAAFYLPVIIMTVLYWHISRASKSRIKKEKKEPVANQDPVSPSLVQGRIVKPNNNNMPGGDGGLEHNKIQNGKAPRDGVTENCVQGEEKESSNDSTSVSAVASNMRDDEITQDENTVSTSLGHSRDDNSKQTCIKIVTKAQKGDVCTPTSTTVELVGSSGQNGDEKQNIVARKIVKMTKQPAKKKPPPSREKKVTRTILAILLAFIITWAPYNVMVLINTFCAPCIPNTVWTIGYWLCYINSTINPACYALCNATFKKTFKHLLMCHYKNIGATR

[2] = test system: Rat striatal muscarinic receptors; experiment: Agonist intrinsic activity: inhibition of forskolin-activated [3H]cAMP in dissociated rat striatum; format: cell-based
From the text: Rat striatal muscarinic receptors are coupled to the inhibition of the conversion of adenosine triphosphate (ATP) to cyclic adenosine monophosphate (cAMP). […] The ATP stores in dissociated rat striatum were labeled with [^3 H]adenine and [^3 H]-cAMP levels were elevated with 10 um forskolin.

DBA mice = experiment: Inhibitory (passive) avoidance test, 72 hour retention; format: in vivo, mouse
From the text: The inhibitory (or sometimes called passive) avoidance (IA) test is a well accepted animal model of learning/memory used to assess the activity of novel muscarinic agonists to enhance cognitive function (Wanibuchi et al., Eur. J. Pharmacol., 1990, 187:479). Animals are placed in the illuminated (12×14×11 cm) portion of a two-chambered box, from which they enter through a guillotine door to the larger (24×13.5×12 cm) dark compartment of the box. Entry to the dark compartment is accompanied by a mild (0.5 mA), brief (2 seconds) footshock. Initial latencies to cross are recorded, with an imposed 60 second ceiling. Following a 72 hour retention interval, animals are returned to the illuminated chamber, and latency to return to the dark compartment is again recorded, with a ceiling of 180 seconds. No footshock is administered on the test day.
Previous studies have indicated a retention deficit in DBA versus CD1 mice in the 72 hour retention model. Accordingly, adult male DBA mice (n=~15/group) were injected with either the compound of Example 1 or the reference standard RS-86 (0, 0.3, 1.0, or 3.0 mg/kg, i.p.) approximately 45 minutes prior to the training described above. Saline-treated adult male CD1 mice (n=15) served as controls.

DBA and C57BL/6 mice = experiment: Mouse plus (water) maze, spatial learning; format: in vivo; conditions: 0.3 or 1.0 mg/kg i.p.
Procedure: The mouse plus maze probes spatial learning processes (Decker and McGaugh, Brain Res. 1989, 477:29). Animals are placed at the terminus of one arm of a four-arm maze submerged in opaque (powdered milk) 25° C. water. Their task is to locate a stationary escape platform hidden at the end of one arm of the maze. The platform remains in the same position across all 4 days of testing. Six daily trials are conducted, during which choice accuracy (correct or incorrect) and latency to escape (maximum=60 seconds) are recorded. Animals failing to escape within 60 seconds are gently guided to the platform, where they are allowed to sit for 20 seconds.
Accordingly, adult male DBA and C57 mice (n=~10/group) were treated with the compound of Example 1 or RS-86 (0, 0.3, or 1.0 mg/kg, i.p.) approximately 45 minutes prior to 4 consecutive daily water maze sessions. Choice accuracy was assessed daily, with day 4 accuracy serving as the primary measure of learning.

CD1 mice = experiment: Locomotor activity in automated activity monitors; format: in vivo, mouse
Procedure: Adult male CD1 mice (n=8/group) were injected with the compound of Example 1 or RS-86 (0, 0.3, 1.0, or 3.0 mg/kg, i.p.) approximately 45 minutes prior to placement in automated activity monitors (Omnitech; Columbus, Ohio). These enclosures, measuring 40×40×42 cm, are equipped with a series of photocells and generate measurements of a variety of locomotor activities.

male CD1 mice = experiment: Toxicology / side-effects; format: in vivo; conditions: for Fatalities: 0.3, 1.0, 3.0 mg/kg i.p.; for Tolerability: 0.3 and 1.0 mg/kg i.p.
muscarinic receptors = experiment: Initial screening at muscarinic receptors; format: binding; conditions: words, on Table 1 data
[3] = test system: cholinergic receptors located in the heart and cortical tissues; conditions: words; cited from earlier work
cardiac receptors = conditions: cited from earlier work
cortical receptors = conditions: cited from earlier work
[4] = test system: parietotemporal cortex of humans; conditions: cited from earlier work
[5] = in vivo, cited from earlier work
rats = conditions: acutely and chronically administered; cited from earlier work
acetylcholine receptors = conditions: chronic administration; cited from earlier work
[6] = test system: nigro-striatal dopamine system; conditions: chronically administered, after destruction of nigro-striatal dopamine system; cited from earlier work

CC1CCCCN1 (racemic) [(+)isomer of (±)2-methylpiperidine, (+)2-methylpiperidine]
Binding of nicotinic ligand (rat brain receptor sites): enhances the binding of nicotinic ligand

O=C1NC(=O)C2(CCNCC2)N1c1ccccc1 [1-phenyl-1,3,8-triazaspiro[4,5]decan-2,4-dione]
Metabolite of fluspirilene [1]: major product of the metabolism of the neuroleptic drug, fluspirilene

CC1OC2(CCN(C)CC2)CN1C=O.O=C(O)C(=O)O (stereo not drawn) [Example 1, 2,8-Dimethyl-1-oxa-3-formyl-3,8-diazaspiro[4,5]decane hydrogen oxalate]
Ki (M1 muscarinic receptor): 32 µM | Ki (M2 muscarinic receptor): 30 µM | Emax ([2]; Rattus norvegicus, read-out: INTRINSIC ACTIVITY (% relative to carbacol)): 53% | Agonist character at central muscarinic receptor ([2]; rat striatum): central muscarinic receptor agonist with partial agonist activity | Latencies across dose groups (DBA mice; 0, 0.3, 1.0, 3.0 mg/kg i.p., DBA mice): latencies were equivalent across all groups | 72 hour retention deficit of DBA mice (DBA mice; 1.0 mg/kg i.p., U=171.5, z=2.04, p<0.05): significant attenuation of the observed retention deficit | 72 hour retention deficit of DBA mice (DBA mice; 3.0 mg/kg i.p., U=172, z=2.0, p<0.05): significant attenuation of the observed retention deficit | Enhancement of learning (choice accuracy) (DBA and C57BL/6 mice): modest, albeit statistically non-significant, enhancement of learning | Performance of DBA mice versus chance level (DBA and C57BL/6 mice; from second day of testing): consistently performed above chance levels | Mean horizontal activity counts (CD1 mice; all doses (0, 0.3, 1.0, 3.0 mg/kg i.p.)): equivalent across all doses | Separation of hypoactivity from cognitive enhancement versus RS-86 (CD1 mice; compared with RS-86): more favorable separation of hypoactivity from the desired activity of cognitive enhancement | Signs observed (male CD1 mice; 3.0 mg/kg i.p.): some dyspnea and a mild decrease in spontaneous activity | Fatalities (male CD1 mice): No fatalities | Tolerability (male CD1 mice): well tolerated | Side-effects in general versus RS-86 (male CD1 mice; compared with RS-86): more benign side-effects | Binding to M1 and M2 muscarinic receptors (muscarinic receptors): binds to both M1 and M2 muscarinic receptors

CCN1C(=O)CC2(CCN(C)CC2)C1=O [RS-86]
Animals that completely failed to cross to the dark compartment in training (DBA mice; 3.0 mg/kg i.p.): nine | Training latencies relative to all other groups (DBA mice; 3.0 mg/kg i.p., F (4,72)=25.8, p<0.00001): elevated relative to all other groups | 72 hour retention deficit of untreated DBAs (DBA mice; RS-86 0.3-3.0 mg/kg i.p.): apparently eliminated the 72 hour retention deficit | Water maze performance in DBA or C57 mice (DBA and C57BL/6 mice): no beneficial effect on water maze performance | Horizontal activity (CD1 mice; 3.0 mg/kg i.p., F (3,28)=29.17, p<0.00001): profound and significant [F (3,28)=29.17, p<0.00001] reduction in horizontal activity | Activity versus animals dosed with the compound of Example 1 (CD1 mice; 0.3 or 1.0 mg/kg i.p.): did not significantly differ | Classic signs of cholinostimulation (male CD1 mice; 3.0 mg/kg i.p.): salivation, lacrimation, urination, defecation, and tremor | Hypothermic response versus similar dose of Example 1 (male CD1 mice; 3.0 mg/kg i.p.): greater hypothermic response | Signs observed (male CD1 mice; 3.0 mg/kg i.p.): dyspnea and decreased activity | Fatalities (male CD1 mice): No fatalities | Tolerability (male CD1 mice): well tolerated | Potency and selectivity [3]: poor potency and lack of selectivity | Agonism at cardiac receptors (cardiac receptors): full agonist | Agonism at cortical receptors (cortical receptors): partial agonist

CNC1(C)C2CCC(C2)C1(C)C (stereo not drawn) [mecamylamine]
Resting cortical perfusion [4]: reduce resting cortical perfusion

CN1CCC[C@H]1c1cccnc1 [nicotine]
Oral bioavailability ([5]; po): poor oral bioavailability | Pharmacokinetics [5]: unfavorable pharmacokinetics | Cognitive function (rats): enhance cognitive function in rats | Effect on affinity of acetylcholine for the receptor (acetylcholine receptors): without affecting the affinity of acetylcholine for the receptor | Up-regulation of the number of acetylcholine receptors (acetylcholine receptors): 50-100% | Action on neuronal and vascular functions [6]: regenerative/protective action
